Experiment [1] deals with matrix metalloproteases. Description: Inhibition of matrix metalloproteases (MMP from rabbit synoviocytes HIG-82, fluorescent substrate). It counts as biochemical. As to the method: After confluent cell growth, the MMP expression was induced in the serum-free 3F12 HAM medium by adding 0.3 μmol/l phorbol 12-myristate 13-acetate. The supernatant was removed after incubating at 37° C. for 20 hours.
Activation of the MMP: The supernatant was activated with trypsin (5 μg/ml). After 15 minutes at 37° C., the activation was stopped by adding 1 mmol/l phenylmethylsulfonyl fluoride (PMSF) and incubating for a further 10 minutes. The total volume of the mixture was 210 μl.
The test substance was added in the stated concentration (see table). […] The reaction was stopped after 30 minutes by adding 10 mmol/l EDTA. The total-volume of the mixture was 320 μl . The parameters measured were the fluorescence intensities at […]. In order to take account of the possible intrinsic fluorescence of the test substances, the fluorescence intensities from parallel measurements without substrate were subtracted from the measurements with substrate. All the steps took place at 20° C.

The test system of experiment [2] is rat liver microsomes. The experiment is described as follows: Inhibition of microsomal lipid peroxidation. The format is biochemical. As to conditions: 37° C., 10 minutes. The protocol:
Obtaining rat liver microsomes: All steps were carried out at 0° C. The liver from a rat was thoroughly rinsed with 0.9% NaCl solution to remove all the hemoglobin. The liver wascut into pieces and then treated in a Potter in 10 mM Tris/HCl pH 7.4; 250 mM sucrose (10 ml of buffer/g of liver). The first centrifugation was at 600 x g for 55 minutes to remove cell detritus. The supernatant was then centrifuged at 12000 x g for 10 minutes and was adjusted with solid CaCI2 (117.6 mg/100 ml) to a concentration of 8 mM. A microsome pellet was obtained by centrifugation at 25000 x g (15 minutes). This pellet was ohomogenized in the same volume of buffer (10 mM Tris/BCI pH 7.4; 150 mMKCl) and again centrifuged at 25000 x g for 15 minutes.
Peroxidation by rat liver microsomes: A test mixture consisted of 20 μl of microsomes (100 mg/ml), see above, dissolved in a buffer (250 mM Tris/HCI pB 6.6; 750 mMKCl), 10 iL1 of 50 mM MgCI2, 10 μl of 200 mM isocitric acid, 10 μl of 4 mM NADP (3.028 mg/ml in water), 10 μl of 25 mM niacinamide, 10 μl of isocitrate dehydrogenase (Boehringer, diluted 1:100) and 20 μl of water or test substance. The reaction was started with 10 μl of 0.25 mM FeSO4. […] The malonaldehyde which was formed was converted by adding 500 μl of 0.67 percent thiobarbituric acid and incubating at 90° C. for 30 min into a pink-colored compound which was measured in a photometer at 532 nm. […]

Experiment [3] has as its system interleukin-1β. Description: Inhibition of release of interleukin-1β from human mononuclear cells. The format is cell-based. The following applies: 10 .parallel.mol/l (so in the source), IL-1β, LPS-stimulated, 20 to 22 hours. The protocol:
Obtaining mononuclear cells from human blood: 10 ml of human blood stabilized with 1 ml of 3.8 percent sodium citrate solution were diluted with 10 ml of PM16 (Serra, Heidelberg), and an underlayer of 15 ml of Lymphoprep (Dr. Molter GmbH, Heidelberg) was introduced. The samples were centrifuged at 400 x g (Minifuge 2 Heraeus, Osterode) at room temperature for 40 minutes. The mononuclear cells were visible as a white ring at the Lymphoprep/plasma boundary. This ring was cautiously removed with a syringe, diluted with the same volume of PM16 and centrifuged at 400 x g for 10 minutes. The precipitate was washed with ^~ 10 ml of RPMI1640 (+300 mg/I L-glutamine, Gibco, Eggenstein). After the cells had been suspended in ^~ 1 ml of RPMI1640 (+300 mg/I L-glutamine, +25 mM HEPES, +100 μg/ml streptomycin, +100 μg/ml penicillin), the cell density was determined with a JT Coulter Counter (Coulter Diagnostics) and adjusted to 5.10^6 /ml. 90% of the resulting cells were lymphocytes and 10% were monocytes.
Inhibition of release of interleukin-1β: 230 μl of mononuclear cells were incubated with 10 μl of test substance (10 μM in dimethyl sulfoxide (DMSO)/water=1/10) and 10 μl of a lipopolysaccharide solution (500 μg dissolved in 1 ml of DMSO and diluted 1/10 with water before starting the test, from Salmonella abortus equi, (Sigma, Deisenhofen) at 37° C., 5% CO2 for 20 to 22 hours. The samples were cooled to 0° C. in an ice bath and centrifuged in a Sigma centrifuge (2 minutes; 2000 revolutions per minute (rpm)). Aliquots of the supernatant were determined using a commercially available ELISA 5(Biermann, Bad Nauheim).
All active substances were tested at a concentration of 10 .parallel.mol/l. IL-1β release was tested in each case.

Experiment [4] has as its system isolated guinea pig trachea. Description: Antagonism of KCl-induced contraction of the isolated guinea pig trachea. As to conditions: Cavia porcellus; agonist KCl; read-out: Anticontractile effect (trachea), concentration range needed to bring about a dilatation corresponding to the ED50 range. The text has this: (§1) The compounds according to the invention are used as antagonists of the contraction of various parts of organs, in this case the isolated guinea pig trachea. The agonists used were KCl, PGF2a, calcium ionophore A23187 and substance P:
Products with a non-specific effect generally show a spasmolytic effect with respect to all agonists. KCI is representative here of non-specific, receptor-independent contraction because KCl-induced contractions are produced predominantly physically, that is to say by increasing the K+ concentration in the outside medium, and change the resting potential of the cell.
(§2) The guinea pigs were sacrificed by lethal anesthesia with laughing gas. The trachea was dissected out over its entire length and cut into 15 individual cartilage rings. In each case five rings were connected together to form a chain and fixed in an organ bath under a preload of 3 g. After an equilibration period of 45 minutes, a contraction was induced with the agonist. Cumulative addition of the antagonist (test product) took place at the plateau 5 of the maximum. Evaluation took place as % change in strength based on the maximum contraction. The test was carried out at 37° C., and the physiological nutrient solution used was a modified Krebs-Henseleit solution through which 95% by volume 02 and 5% by volume CO2 was bubbled.
(§3) Test animals: Albino guinea pigs (102), weight: 200 to 300 g, male or female
(§4) Composition of the organ bath (nutrient solution):
(§5) Vehicle: Double-distilled water, ethanol or isopropanol; Administration: into the organ bath Number of administrations: cumulative, single doses for SP

The test system of experiment [5] is isolated guinea pig trachea. Description: Antagonism of PGF2α-induced contraction of the isolated guinea pig trachea. The following applies: Cavia porcellus; agonist PGF2α; read-out: Anticontractile effect (trachea), concentration range needed to bring about a dilatation corresponding to the ED50 range.
Source text: as §1
Inhibition of contractions induced by this cyclooxygenase product is possible only by competitive antagonism at the receptor or of the downstream signal pathway.
as §2, §3, §4, §5

Experiment [6] has as its system isolated guinea pig trachea. Description: Antagonism of calcium ionophore A23187-induced contraction of the isolated guinea pig trachea. The following applies: Cavia porcellus; agonist Ca ionophore A23187; read-out: Anticontractile effect (trachea), concentration range needed to bring about a dilatation corresponding to the ED50 range.
Source text: as §1
c) Calcium ionophore A23187 (Calbiochem, Bad Soden) brings about, due to increased uptake of calcium ions, an activation of all calcium-dependent signal cascades in the cell.
as §2, §3, §4, §5

Experiment [7] has as its system isolated guinea pig trachea. The experiment is described as follows: Antagonism of substance P-induced contraction of the isolated guinea pig trachea. As to conditions: Cavia porcellus; agonist substance P; read-out: Anticontractile effect (trachea), concentration range needed to bring about a dilatation corresponding to the ED50 range.
Source text: as §1
Antagonism is possible on the one hand by specific receptor antagonists, and on the other hand by inhibition of the downstream signal pathway.
as §2, §3, §4, §5

Experiment [8] deals with isolated strips of guinea pig lung. Description: Antagonism of LTD4-induced contraction of isolated strips of guinea pig lung. As to conditions: Cavia porcellus; agonist LTD4; read-out: Anticontractile effect (lung), concentration range corresponding to the IC50 value. The text has this: (§6) The test was based on the same principle as the test indicated in Pharmacological Test 5; however, strips of lung were used in this case.
(§7) The guinea pig was sacrificed under anesthesia with laughing gas. The entire lung tract was cut out starting from the trachea. The lobes of the lungs were cut in circular fashion to produce strips about 3 mm wide. The strips of the upper lobes were divided up in order to obtain a total of six strips of approximately equal size. The strips were suspended in the organ baths under a preload of 4 g. Modified Krebs-Henseleit solutions were used as nutrient solution. When platelet activating factor (PAF) was used as agonist, the composition of this solution corresponded to that for the agonist SP in Pharmacological Test 5; a Krebs-Henseleit solution as in the case of the agonist KCI (Pharm. Test 5) was used for the agonist LTD4. 95% by volume 02, 5% by volume CO2 was bubbled through the bath, and the bath temperature was 37° C. The test is carried out by a therapeutic/cumulative method with dose levels of 1, 3, 6 and 10 μg/ml.
(§8) The test animals, organ bath, vehicle, mode of administration corresponded to that stated for Pharmacological Test 5.

Experiment [9] shares this test system. Description: Antagonism of PAF-induced contraction of isolated strips of guinea pig lung. The following applies: Cavia porcellus; agonist PAF; read-out: Anticontractile effect (lung), concentration range corresponding to the IC50 value.
Source text: as §6, §7, §8

The test system of experiment [10] is Wistar-Lewis rats. Description: Adjuvant arthritis. It counts as in vivo. As to conditions: 12.6 mg/kg intraperitoneal, twice a day for 18 days. As to the method: The investigations were carried out as described in EP 50 42 740.
Experiment [11] concerns RAW 264.7 cells. The experiment is described as follows: Release of tumor necrosis factor α from RAW 264.7 cells. The following applies: Mus musculus, RAW264.7, LPS, incubation for 4 h, read-out: inhibition of TNFα formation compared with an untreated control. The format is cell-based. As to the method: (§9) Culture medium: DMEM+10% FCS+penicillin/streptomycin (50 U/SO μg/ml)
(§10) Culture conditions: 37° C., 10% CO2
(§11) Culture dishes: 24-well dishes
(§12) In each case 10^6 cells/ml/well were incubated for 24 hours (h)
(§13) Addition of 10 μl of test substance (=100 μM in the test, dissolved in double-distilled water)
Addition of 50 μl of lipopolysaccharide (LPS) from E. coli (=10 pg/ml in the test, dissolved in culture medium) […]
Tumor necrosis factor α was determined using a Factortest X mouse TNFα ELISA kit from Genzyme (R(1sselsheim, Geromany), Order no. 80-2802-00.

Experiment [12] deals with RAW 264.7 cells. Description: Release of substance P from RAW 264.7 cells. As to conditions: Mus musculus, RAW264.7, stimulated by 50 ng of LPS for 4 hours, read-out: inhibition of substance P production. It counts as cell-based. The protocol: as §9, §10, §11, §12, §13
Release of substance P took place as described for TNFα, but the cells were stimulated by 50 ng of LPS for 4 hours. Substance P was determined using a substance P RIA test kit from Peninsula Laboratories (Belmont, USA) Test no. RIK-7451.

Molecules are shown by their SMILES. Converted amounts (≈) assume the structure as drawn.

With `CCOC(=O)C(=Cc1ccc(O)c(O)c1)P(=O)(OCC)OCC` [Compound 47, Ethyl 2-(diethoxyphosphinyl)-3-(3,4-dihydroxyphenyl) propenoate], the “Inhibition of MMP, Inhibition (%)” value was 13% in experiment [1] (10 μM), 24% in experiment [1] (30 μM) and 55% in experiment [1] (100 μM). Further, the IC50 in experiment [2] turned out to be 2100 nM. In experiment [3], 10 µM produced 80% inhibition.
With `CCOP(=O)(OCC)/C(C#N)=C/c1ccc(OC)c(OC)c1` [Compound 38, Z- and E-2-(diethoxyphosphinyl)-3-(3,4-dimethoxyphenyl) acrylonitrile], the EC50 in experiment [4] was over 10 µg/mL; in experiment [5] it was 1 to 3 µg/mL (≈ 3.07 to 9.22 µM); in experiment [6], about 3 µg/mL (≈ 9.22 µM); in [7], 3 to 10 µg/mL (≈ 9.22 to 30.7 µM). Moreover, the IC50 in [8] was about 1 µg/mL (≈ 3.07 µM); in [9], under 0.1 µg/mL. The “inhibition of the increase in the paw volume compared with an untreated control group” value in experiment [10] was 98%. The inhibition at 100 µM came to 16% in experiment [11] and 100% in experiment [12].

Broadly, the inhibition is the drop in the measured response relative to a control, in per cent.

The values are drawn from patent US5627173A, “Phosphonoacetic acid derivatives and their use for treating degenerative joint disorders” (Hoechst Aktiengesellschaft, priority 1995, dated 1997).
